Source: PubChem BioAssay (NCI)
Several values for one entry are separate records, joined by “and”; a condition that tells them apart may be missing. Identical values can stand only once.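 Method: 48-hour compound exposure of cells in 96-well plates, five concentrations, linear interpolation of endpoints. The concentration for 50% growth inhibition is given as GI50. The concentration for full growth arrest is given as TGI.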

Columns and labels:
Assay in all cases: inhibition of tumour cell growth, NCI panel, 48 h
[1] = tested on: HCT-116 colon
[2] = tested on: HCT-15 colon
[3] = tested on: NCI-H460 lung
[4] = tested on: NCI-H522 lung
[5] = tested on: OVCAR-3 ovarian
[6] = tested on: OVCAR-5 ovarian
[7] = tested on: SF-539 CNS
[8] = tested on: SN12C renal
[9] = tested on: SNB-75 CNS
[10] = tested on: U251 CNS

Row | SMILES | GI50 [1] [µM] | TGI [1] | GI50 [2] [µM] | TGI [2] | GI50 [3] [µM] | TGI [3] | GI50 [4] [µM] | TGI [4] | GI50 [5] [µM] | TGI [5] | GI50 [6] [µM] | TGI [6] | GI50 [7] [µM] | TGI [7] | GI50 [8] [µM] | TGI [8] | GI50 [9] [µM] | TGI [9] | GI50 [10] [µM] | TGI [10]
1 | O=C1NN(c2ccc(C(=O)O)cc2)C(=O)/C1=C\c1ccc([N+](=O)[O-])o1 | 20.8 | 42.8 µM | 20.4 | 45.4 µM | > 100 | > 100 µM | 15.7 | 32.8 µM | 20.9 | 42.3 µM | > 100 | > 100 µM | > 100 | > 100 µM | 58.8 | > 100 µM | > 100 | > 100 µM | 79.9 | > 100 µM
2 | Cc1cc(NS(=O)(=O)c2ccc(N=Nc3cc(N=Nc4ccc(S(=O)(=O)Nc5cc(C)nc(C)n5)cc4)c4c(NC(=O)C(Cl)Cl)cccc4c3OC(=O)C(Cl)Cl)cc2)nc(C)n1 (tested in a mixture with another compound) | – | > 100 µM | – | 31.7 µM | – | > 100 µM | – | 38.5 µM | – | 33 µM | – | 30.6 µM | – | 42.8 µM | – | 37.8 µM | – | 76.9 µM | – | 32.8 µM
3 | COc1ccc2c(=O)c(C)c(-c3ccccc3)oc2c1CN(C)C | – | > 100 µM | – | > 100 µM | – | > 100 µM | – | > 100 µM | – | > 100 µM | – | > 100 µM | – | > 100 µM | – | > 100 µM | – | > 100 µM and 98.4 µM | – | > 100 µM
4 | COC(=O)NC1C(C)OC(OC2C/C=C(/C)C3C=CC4C(OC5CC(OC6CC(O)C(OC7CC(O)C(OC)C(C)O7)C(C)O6)C(O)C(C)O5)C(C)CC(C)C4C3(C)/C(O)=C3\C(=O)OC4(CC(C)C(CO)=CC4/C=C\2C)C3=O)CC1(C)[N+](=O)[O-] (stereo unspecified) | 8.04 | 14.8 µM and 23.4 µM | – | 50 µM and 40.8 µM | 8.33 | 18.4 µM and 30.5 µM | – | 11.7 µM and 22.7 µM | 9.64 | 21 µM and 19.4 µM | 13.4 | 30.7 µM and 33.7 µM | 11.6 | 24.9 µM and 37.7 µM | 9.65 | 29.1 µM and 40 µM | 11 | 33.5 µM and 46.2 µM | – | 32.2 µM and 27.6 µM
5 | CC[C@@H](C(=O)[C@@H](C)[C@@H](O)[C@H](C)[C@@H]1O[C@@H]([C@@H](CC)C(=O)O)CC[C@@H]1C)C1O[C@]2(C=CC(=O)[C@]3(CC[C@@](C)([C@H]4CC[C@](O)(CC)[C@H](C)O4)O3)O2)[C@H](C)C[C@@H]1C (stereo partly specified) | 0.69 | 15.3 µM | 0.644 | 14.3 µM | 0.408 | 11.3 µM | 0.052 | 3.64 µM | 0.0547 | 12.5 µM | 0.734 | 21.5 µM | 0.334 | 10.4 µM | 0.179 | 15 µM | 1.21 | 7.12 µM | 0.0791 | 13.3 µM
6 | C/C(=C\C(C)COCc1ccccc1)[C@H](COCc1ccccc1)OCc1ccccc1 (stereo partly specified) | – | > 100 µM | – | > 100 µM | – | > 100 µM | – | > 100 µM | – | > 100 µM | – | > 100 µM | – | > 100 µM | – | > 100 µM | – | > 100 µM | – | > 100 µM
7 | COc1ccc(N(CC(=O)NCCC[Te]c2ccccc2)C(=O)c2ccccc2)cc1 | 2.55 | 10.2 µM | 2.95 | 15 µM | 0.543 | 2.37 µM | 3.1 | 8.84 µM | 5.75 | 19.8 µM | 3.8 | 11.4 µM | 2.3 | 6 µM | 2.7 | 8.51 µM | 2.58 | 9.64 µM | 2.82 | 9.4 µM
8 | COC(=O)Nc1nc2ccc(Oc3ccc(NC(=O)Nc4cccc(C(=O)O)c4)cc3)cc2[nH]1 | 8.82 | > 25 µM | 6.49 | > 25 µM | 7.21 | > 25 µM | 4 | > 19 µM | 4.41 | 10.5 µM | 12 | > 25 µM | 4.95 | > 20.9 µM | 11.9 | > 25 µM | 9.98 | > 25 µM | 7.35 | > 25 µM
9 | COc1cc(C(=O)c2ccc3c(c2)OCO3)cc(OC)c1OC | 2.08 | > 100 µM | 0.928 | > 100 µM | 2.55 | > 100 µM | 1.4 | 8.84 µM | 1.4 | 3.93 µM | 8.96 | > 100 µM | 1.95 | 7.52 µM | 6.86 | > 100 µM | 1.39 | 5.03 µM | 2.81 | > 100 µM
10 | CC1=C[C@H]2c3c(c(O)c(O)c4oc5c(C)cccc5c(=O)c34)[C@H](c3cc(O)c(O)c4oc5c(C)cccc5c(=O)c34)[C@H]2C(C)(C)C1 | 0.899 | 2.69 µM | 1.29 | 10.9 µM | 0.825 | 3.02 µM | 1.97 | 4.29 µM | 1.52 | 9.34 µM | 2.65 | 10.6 µM | 1.67 | 3.65 µM | 1.69 | 6.7 µM | 1.4 | 6.77 µM | 1.23 | 7.09 µM
11 | c1ccc(Cn2cc3c(c2-c2ccccc2)CCc2cnoc2-3)cc1 | 3.27 | > 100 µM | 3.72 | > 100 µM | 3.41 | 22.1 µM | 3.04 | > 100 µM | 3.73 | 24.7 µM | 33 | > 100 µM | 5.34 | 38.9 µM | 7.83 | > 100 µM | 3.27 | 63.4 µM | 3.65 | > 100 µM
12 | CCC(C)(C)C(=O)O[C@H]1C[C@@H](C)C=C2C=C[C@H](C)[C@H](CC[C@@H]3C[C@@H](O)CC(=O)O3)[C@H]21 | 1.25 | 5.43 µM and 6.98 µM | 2.15 | 19 µM and > 30 µM | 3.91 | 14.1 µM and > 30 µM | 0.826 | 5.26 µM | 8.77 | 21.4 µM and > 30 µM | 9.19 | 22.9 µM | 11.3 | 24.8 µM and > 30 µM | 0.949 | 16.5 µM and > 30 µM | – | 5.37 µM and > 30 µM | 0.371 | 5.44 µM and > 30 µM
13 | O=S(=O)(/C=C/c1ccc(Cl)cc1Cl)Cc1ccccc1CS(=O)(=O)/C=C/c1ccc(Cl)cc1Cl | – | > 100 µM | – | > 100 µM | – | > 100 µM | – | > 100 µM | – | > 100 µM | – | > 100 µM | – | > 100 µM | – | > 100 µM | – | > 100 µM | – | > 100 µM
